# According to patent publication US8178506B2, “Oligomeric compounds and compositions for use in modulation of small non-coding RNAs” (Regulus Therapeutics Inc., priority 2003, dated 2012):
# In the oligonucleotide strings, read from the 5' end, every base follows the letter of its sugar. An asterisk marks phosphorothioate; unmarked linkages are phosphodiester. Other units and linkages are bracketed, terminal groups are in braces. A string of capitals states the bases alone. e = 2'-O-(2-methoxyethyl) (MOE); [5mC] = 5-methylcytosine; d = 2'-deoxy (DNA)
# Columns and labels:
# Assay type in all cases: cell-based, human
# [1] = test system: aP2; assay: aP2 mRNA expression in adipocytes (real-time PCR); details: differentiating adipocytes transfected with oligomeric compound; Table 75
# Procedure: (§1) Expression of the four hallmark genes, HSL, aP2, Glut4, and PPARγ, is also measured in adipocytes transfected with oligomeric compounds of the invention. Cells are lysed on day nine post-transfection and total RNA is harvested. The amount of total RNA in each sample is determined using a Ribogreen Assay (Invitrogen Life Technologies, Carlsbad, Calif.).
# (§2) For assaying adipocyte differentiation, expression of the four hallmark genes, HSL, aP2, Glut4, and PPARγ, as well as triglyceride (TG) accumulation and leptin secretion were measured in adipocytes transfected with the uniform 2′-MOE phosphorothioate (PS) oligomeric compounds previously described. Cells are lysed on day nine post-transfection, in a guanadinium-containing buffer and total RNA is harvested. Real-time PCR is performed (Applied Biosystems, Prism 7700) on the total RNA using the following primer/probe sets for the adipocyte differentiation hallmark genes: (aP2): forward 5′-GGTGGTGGAATGCGTCATG-3′ (SEQ ID NO: 746), reverse 5′-[…]-3′ (SEQ ID NO: 747), probe 5′-FAM-[…]-TAMRA-3′ (SEQ ID NO: 748); (Glut4): forward 5′-GGCCTCCGCAGGTTCTG-3′ (SEQ ID NO: 749), reverse 5′-[…]-3′ (SEQ ID NO: 750), probe 5′-FAM-[…]-TAMRA-3′ (SEQ ID NO: 751); (HSL): forward 5′-ACCTGCGCACAATGACACA-3′ (SEQ ID NO: 752), reverse 5′-[…]-3′ (SEQ ID NO: 753), probe 5′-FAM-[…]-TAMRA-3′ (SEQ ID NO: 754); (PPAR-γ): forward 5′-[…]-3′ (SEQ ID NO: 755), reverse 5′-[…]-3′ (SEQ ID NO: 756), probe 5′-FAM-[…]-TAMRA-3′ (SEQ ID NO: 757). The amount of total RNA in each sample is determined using a Ribogreen Assay (Molecular Probes, Eugene, Oreg.), and expression levels of the adipocyte differentiation hallmark genes were normalized to total RNA.
# [2] = test system: PPARγ; assay: PPARγ mRNA expression in adipocytes (real-time PCR); details: differentiating adipocytes transfected with oligomeric compound; Table 75
# Procedure: as §1, §2
# [3] = test system: adipocytes; assay: Triglyceride accumulation assay in adipocytes; details: differentiating adipocytes transfected with oligomeric compound; Table 75
# Procedure: The triglyceride accumulation assay measures the synthesis of triglyceride by adipocytes. Triglyceride accumulation is measured using the Infinity™ Triglyceride reagent kit (Sigma-Aldrich, St. Louis, Mo.). On day nine post-transfection, cells are washed and lysed at room temperature, and the triglyceride assay reagent is added. Triglyceride accumulation is measured based on the amount of glycerol liberated from triglycerides by the enzyme lipoprotein lipase. Liberated glycerol is phosphorylated by glycerol kinase, and hydrogen peroxide is generated during the oxidation of glycerol-1-phosphate to dihydroxyacetone phosphate by glycerol phosphate oxidase. Horseradish peroxidase (HRP) uses H2O2 to oxidize 4-aminoantipyrine and 3,5 dichloro-2-hydroxybenzene sulfonate to produce a red-colored dye. Dye absorbance, which is proportional to the concentration of glycerol, is measured at 515 nm using an UV spectrophotometer. Glycerol concentration is calculated from a standard curve for each assay, and data are normalized to total cellular protein as determined by a Bradford assay (Bio-Rad Laboratories, Hercules, Calif.).
# An increase in triglyceride content is another well-established marker for adipocyte differentiation. The triglyceride accumulation assay measures the synthesis of triglyceride by adipocytes. Triglyceride accumulation was measured using the Infinity™ Triglyceride reagent kit (Sigma-Aldrich, St. Louis, Mo.). Human white preadipocytes (Zen-Bio Inc., Research Triangle Park, N.C.) were grown in preadipocyte media (ZenBio Inc.). One day before transfection, 96-well plates were seeded with 3000 cells/well. Cells were transfected according to standard published procedures with 250 nM oligomeric compound in LIPOFECTIN™ (Invitrogen Corporation, Carlsbad, Calif.) (Monia et al., J. Biol. Chem. 1993 268(19):14514-22). Oligomeric compounds were tested in triplicate on each 96-well plate, and the effects of TNF-α, a positive drug control that inhibits adipocyte differentiation, were also measured in triplicate. Negative and transfectant-only controls may be measured up to six times per plate. After the cells have reached confluence (approximately three days), they were exposed to differentiation media (Zen-Bio, Inc.) containing a PPAR-γ agonist, IBMX, dexamethasone, and insulin for three days. Cells were then fed adipocyte media (Zen-Bio, Inc.), which was replaced at 2 to 3 day intervals. […] Triglyceride accumulation was measured based on the amount of glycerol liberated from triglycerides by the enzyme lipoprotein lipase. Liberated glycerol is phosphorylated by glycerol kinase, and hydrogen peroxide is generated during the oxidation of glycerol-1-phosphate to dihydroxyacetone phosphate by glycerol phosphate oxidase. Horseradish peroxidase (HRP) uses H2O2 to oxidize 4-aminoantipyrine and 3,5 dichloro-2-hydroxybenzene sulfonate to produce a red-colored dye. Dye absorbance, which is proportional to the concentration of glycerol, was measured at 515 nm using an UV spectrophotometer. Glycerol concentration was calculated from a standard curve for each assay, and data were normalized to total cellular protein as determined by a Bradford assay (Bio-Rad Laboratories, Hercules, Calif.). Results are expressed as a percent±standard deviation relative to transfectant-only control.
# [4] = test system: Glut4; assay: Glut4 mRNA expression in adipocytes (real-time PCR); details: differentiating adipocytes transfected with oligomeric compound; Table 75
# Procedure: as §1, §2
# [5] = test system: HSL; assay: HSL mRNA expression in adipocytes (real-time PCR); details: differentiating adipocytes transfected with oligomeric compound; Table 75
# Procedure: as §1, §2
# [6] = test system: HeLa cells; assay: Cell cycle assay in HeLa cells; details: HeLa cells; for % cells in cell cycle phase: G1 / % cells in cell cycle phase: G2/M / % cells in cell cycle phase: S / % cells in cell cycle phase: aneuploid / % cells in cell cycle phase: subG1: 48 hours after treatment, relative to untreated control (UTC=100)
# Procedure: In some embodiments, HeLa cells were plated on collagen-coated 24-well plates at 50,000-60,000 cells per well, and allowed to attach to wells overnight. In some embodiments, HeLa cells were synchronized by double thymidine block (cells were washed three times with PBS, then grown in 10% FBS containing 2 mM thymidine; then 19 hours later, cells were washed three times in PBS, 10% FBS for 9 hours; cells were then incubated in 10% FBS, 2 mM thymidine for 15 hours; then washed three times with PBS, 10% FBS and samples were taken every two hours over a 16 hour period). A portion of each time sample was fixed with ethanol and treated with propidium iodide and subjected to FACs analysis for determination of the percentage of cells in each phase of the cell cycle. […] HeLa cells treated with 10 μM cisplatin or 100 ng/ml nocodazole were used as controls for G1-phase and late G2/M-phases, respectively. From the remaining portion of each of these time samples, total RNA was isolated and used to assess the expression of cell cycle marker mRNAs using the real-time RT-PCR methods and/or used to screen microarrays to assess the expression of miRNAs over the course of the cell cycle. It was observed that several miRNAs are expressed in a cell-cycle-dependent manner. Shown in Table 30 are the mRNA levels of the E2F1 transcription factor and topoisomerase 2A (Top2A), which vary over the course of the cell cycle and can be used for comparison to the experimental groups for the confirmation of cell cycle phase. Data are an average of three trials.
# In some embodiments, HeLa cells were also treated with oligomeric compounds targeting miRNAs. […] The medium was removed from the plates. Each well was washed in 250 μl of PBS. […] Control cells received LIPOFECTIN™ only. […] After 24 hours (Table 31) or 48 hours (Table 32), cells were prepared for flow cytometry analysis to generate a cell cycle profile. The cell cycle profile was analyzed with the ModFit program (Verity Software House, Inc., Topsham Me.).
# The random-mer ISIS 29848 (SEQ ID NO: 737) was used as a negative control, and ISIS 183891 (SEQ ID NO: 847), targeting kinesin-like 1/Eg5, was included as a positive control. Data are expressed as percentage of cells in each phase relative to the untreated control (UTC); values above 100 are considered to indicate a delay or arrest in that phase of the cell cycle. […] In some cases, the same oligomeric compound was tested in repeated experiments.
# In accordance with the present invention, certain oligomeric compounds targeting miRNAs were selected for dose response studies. Using the cell cycle assay described above, the cell cycle profiles of HeLa or A549 cells treated with varying concentrations of oligomeric compounds of the present invention were assessed.
# HeLa cells were treated with 25-, 50-, 100- or 150 nM of the oligomeric compounds ISIS
# Numbers 327902 (SEQ ID NO: 320) and 328383 (SEQ ID NO: 492), both targeted against mir-192, and ISIS 327905 (SEQ ID NO: 323), targeting mir-205, and ISIS 328403 (SEQ ID NO: 512), targeting mir-106. Cells treated with increasing concentrations of oligomeric compounds were compared to untreated cells, to assess the dose-dependency of the observed delay or arrest. The random-mer ISIS 29848 was used as a negative control. Cells were prepared for flow cytometry 48-hours after oligonucleotide treatment, as described, supra.
# [7] = 150 nM oligomeric compound, 24 hours, relative to untreated control (UTC = 100)
# [8] = 150 nM, 48 hours, relative to untreated control
Substance,aP2 mRNA [1],PPAR gamma mRNA [2],TG (triglyceride accumulation) [3],GLUT4 mRNA [4],HSL mRNA [5],"% cells aneuploid [6, 7]","% cells in cell cycle phase G1 [6, 7]","% cells in cell cycle phase G2/M [6, 7]","% cells in cell cycle phase S [6, 7]","% cells in cell cycle phase subG1 [6, 7]",% cells in cell cycle phase: G1 ([6]; 150 nM oligomeric compound),% cells in cell cycle phase: G2/M ([6]; 150 nM oligomeric compound),% cells in cell cycle phase: S ([6]; 150 nM oligomeric compound),% cells in cell cycle phase: aneuploid ([6]; 150 nM oligomeric compound),% cells in cell cycle phase: subG1 ([6]; 150 nM oligomeric compound),"% cells in cell cycle phase G1 [6, 8]","% cells in cell cycle phase G2/M [6, 8]","% cells in cell cycle phase S [6, 8]","% cells in cell cycle phase aneuploid [6, 8]","% cells in cell cycle phase subG1 [6, 8]"
327972 (antisense eA*e[5mC]*eT*e[5mC]*eA*e[5mC]*e[5mC]*eG*eA*e[5mC]*eA*eG*eG*eT*eT*eG*eA*eA*eT*eG*eT*eT) [compound 327972],70 percentage of untreated control (UTC),85 percentage of untreated control (UTC),67 percentage of untreated control (UTC),75 percentage of untreated control (UTC),70 percentage of untreated control (UTC),–,–,–,–,–,–,–,–,–,–,–,–,–,–,–
328707 (eG*e[5mC]*eA*eA*e[5mC]*dA*dG*dG*d[5mC]*d[5mC]*dT*d[5mC]*dA*dA*dT*eA*eT*e[5mC]*eT*eT) [compound 328707],–,–,–,–,–,166%,36%,195%,93%,188%,46%,213%,134%,155%,1486%,103%,122%,87%,140%,125%
"341788 (antisense AGCCAAGCTCAGACGGATCCGA; all 2'-MOE, all phosphorothioate, methylation of C not given here) [compound 341788]",–,–,–,–,–,114%,154%,140%,54%,303%,76%,163%,105%,116%,748%,–,–,–,–,–
